# Target: T1, human DGAT1 (Homo sapiens, UniProt O75907)
# T1 construct: made in house; host or cells: Sf9 insect cells (recombinant baculovirus); membrane fraction
# T1 sequence (O75907 1-488): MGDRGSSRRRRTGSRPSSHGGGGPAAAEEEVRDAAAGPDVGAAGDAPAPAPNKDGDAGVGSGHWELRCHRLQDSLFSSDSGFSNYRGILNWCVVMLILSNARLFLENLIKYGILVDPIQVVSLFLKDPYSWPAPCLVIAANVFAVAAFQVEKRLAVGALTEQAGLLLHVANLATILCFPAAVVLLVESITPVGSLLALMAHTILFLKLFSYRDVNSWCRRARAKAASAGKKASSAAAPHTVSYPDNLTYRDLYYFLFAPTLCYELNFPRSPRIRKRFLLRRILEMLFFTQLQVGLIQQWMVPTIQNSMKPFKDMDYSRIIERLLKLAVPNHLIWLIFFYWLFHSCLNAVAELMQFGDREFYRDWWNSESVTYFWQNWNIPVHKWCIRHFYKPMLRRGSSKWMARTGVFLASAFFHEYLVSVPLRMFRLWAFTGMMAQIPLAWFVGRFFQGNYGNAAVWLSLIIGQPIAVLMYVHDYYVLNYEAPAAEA
# Test: Human enzyme assay, further developed assay (14C oleoyl CoA, 96 well plate)
# Format: biochemical
# Conditions: human DGAT1 expressed in insect cell (sf9) membranes
# Procedure: The in vitro assay to identify DGAT1 inhibitors uses human DGAT1 expressed in insect cell membranes as the enzyme source (Proc. Natl. Acad. Sci. 1998, 95, 13018-13023). Briefly, sf9 cells were infected with recombinant baculovirus containing human DGAT1 coding sequences and harvested after 48 h. Cells were lysed by sonication and membranes isolated by centrifuging at 28000 rpm for 1 h at 4° C. on a 41% sucrose gradient. The membrane fraction at the interphase was collected, washed, and stored in liquid nitrogen.
# In a further developed assay, DGAT1 activity was assayed by a modification of the method described by Coleman (Methods in Enzymology 1992, 209, 98-102). Compound at 0.00003-10 μM (final cone) was incubated with 25 μg/ml (final cone) membrane protein, 5 mM MgCl2, and 100 μM 1,2 dioleoyl-sn-glycerol in a total assay volume of 200 μl in a 96 well plate. The reaction was started by adding ^14C oleoyl coenzyme A (30 μM final concentration) and incubated at room temperature for 30 minutes. The reaction was stopped by adding 300 μl 2-propanol:heptane 7:1. Radioactive triolein product was separated into the organic phase by adding 200 μl heptane and 200 μl 0.1 M carbonate buffer pH 9.5. DGAT1 activity was quantified by counting aliquots of the upper heptane layer by liquid scintillography.
row,IC50 [nM],Compound
1,13,"Cc1ccc(Nc2nnc(C(=O)Nc3ccc(O[C@H]4CC[C@H](C(=O)O)CC4)nc3)o2)cc1Cl [Example 26, (1r,4r)-4-(5-(5-(3-chloro-4-methyl-phenylamino)-1,3,4-oxadiazole-2-carboxamido)pyridin-2-yloxy)cyclo-hexane-carboxylic acid]"
2,19,"O=C(Nc1ccc(O[C@H]2CC[C@H](C(=O)O)CC2)nc1)c1nnc(Nc2cccc(Cl)c2)o1 [Example 27, (1r,4r)-4-(5-(5-(3-chloro-phenylamino)-1,3,4-oxadiazole-2-carboxamido)pyridin-2-yloxy)cyclo-hexane-carboxylic acid]"
3,16,"O=C(Nc1ccc(O[C@H]2CC[C@H](C(=O)O)CC2)nc1)c1nnc(Nc2cccc(Cl)c2Cl)o1 [Example 28, (1r,4r)-4-(5-(5-(2,3-dichloro-phenylamino)-1,3,4-oxadiazole-2-carboxamido)pyridin-2-yloxy)cyclo-hexane-carboxylic acid]"
4,25,"O=C(Nc1ccc(O[C@H]2CC[C@H](C(=O)O)CC2)nc1)c1nnc(Nc2ccc(F)c(C(F)(F)F)c2)o1 [Example 29, (1r,4r)-4-(5-(5-(4-fluoro-3-(trifluoro-methyl)phenylamino)-1,3,4-oxadiazole-2-carboxamido)pyridin-2-yloxy)cyclo-hexane-carboxylic acid]"
5,17,"CC(C)c1ccc(Nc2nnc(C(=O)Nc3ccc(O[C@H]4CC[C@H](C(=O)O)CC4)nc3)o2)cc1 [Example 30, (1r,4r)-4-(5-(5-(4-isopropyl-phenylamino)-1,3,4-oxadiazole-2-carboxamido)pyridin-2-yloxy)cyclo-hexane-carboxylic acid]"
6,48,"CC(C)(C)c1ccc(Nc2nnc(C(=O)Nc3ccc(O[C@H]4CC[C@H](C(=O)O)CC4)nc3)o2)cc1 [Example 31, (1r,4r)-4-(5-(5-(4-tert-butylphenyl-amino)-1,3,4-oxadiazole-2-carboxamido)pyridin-2-yloxy)cyclo-hexane-carboxylic acid]"
7,26,"O=C(Nc1ccc(O[C@H]2CC[C@H](C(=O)O)CC2)nc1)c1nnc(Nc2ccc(F)c(F)c2)o1 [Example 32, (1r,4r)-4-(5-(5-(3,4-difluoro-phenylamino)-1,3,4-oxadiazole-2-carboxamido)pyridin-2-yloxy)cyclo-hexane-carboxylic acid]"
8,22,"O=C(Nc1ccc(O[C@H]2CC[C@H](C(=O)O)CC2)nc1)c1nnc(Nc2ccc(Br)cc2Cl)o1 [Example 33, (1r,4r)-4-(5-(5-(4-bromo-2-chloro-phenylamino)-1,3,4-oxadiazole-2-carboxamido)pyridin-2-yloxy)cyclo-hexane-carboxylic acid]"
9,21,"O=C(Nc1ccc(O[C@H]2CC[C@H](C(=O)O)CC2)nc1)c1nnc(Nc2cccc(OC(F)(F)F)c2)o1 [Example 34, (1r,4r)-4-(5-(5-(3-(trifluoromethoxy)phenylamino)-1,3,4-oxadiazole-2-carboxamido)pyridin-2-yloxy)cyclohexanecarboxylic acid]"
10,87,O=C(Nc1ccc(O[C@H]2CC[C@H](C(=O)O)CC2)nc1)c1nnc(Nc2cc(C(F)(F)F)c(F)cc2F)o1 [Example 35]
11,9.6,"O=C(O)C[C@H]1CC[C@@H](Oc2ccc(NC(=O)c3nnc(Nc4ccc(F)c(F)c4)o3)cn2)CC1 [Example 36, 2-((1s,4s)-4-(5-(5-(3,4-difluorophenylamino)-1,3,4-oxadiazole-2-carboxamido)pyridin-2-yloxy)cyclohexyl)acetic acid]"
12,18,"O=C(O)C[C@H]1CC[C@H](Oc2ccc(NC(=O)c3nnc(Nc4ccc(F)c(F)c4)o3)cn2)CC1 [Example 37, 2-((1r,4r)-4-(5-(5-(3,4-difluorophenylamino)-1,3,4-oxadiazole-2-carboxamido)pyridin-2-yloxy)cyclohexyl)acetic acid]"
13,5.4,"O=C(O)c1ccc(Oc2ccc(NC(=O)c3nnc(Nc4ccc(F)c(F)c4)o3)cn2)cc1 [Example 38, 4-(5-(5-(3,4-Difluorophenylamino)-1,3,4-oxadiazole-2-carboxamido)-Pyridin-2-yloxy)benzoic acid]"
14,7.5,"O=C(O)c1ccc(Oc2ccc(NC(=O)c3nnc(Nc4ccc(F)c(Cl)c4)o3)cn2)cc1 [Example 39, 4-(5-(5-(3-Chloro-4-fluorophenylamino)-1,3,4-oxadiazole-2-carboxamido)pyridin-2-yloxy)benzoic acid]"
15,3.5,"Cc1cc(O[C@H]2CC[C@@H](C(=O)O)CC2)ncc1NC(=O)c1nnc(Nc2ccc(F)c(F)c2)o1 [Example 40, (1s,4s)-4-(5-(5-(3,4-Difluorophenylamino)-1,3,4-oxadiazole-2-carboxamido)-4-methylpyridin-2-yloxy)cyclohexanecarboxylic acid]"
16,3.4,"Cc1cc(OC2CCC(C(=O)O)CC2)ncc1NC(=O)c1nnc(Nc2ccc(F)c(Cl)c2)o1 (centres unmarked) [Example 41, (1s,4s)-4-(5-(5-(3-Chloro-4-fluorophenylamino)-1,3,4-oxadiazole-2-carboxamido)-4-methylpyridin-2-yloxy) cyclohexanecarboxylic acid]"
17,1.1,"Cc1cc(OC2CCC(C(=O)O)CC2)ncc1NC(=O)c1nnc(Nc2ccc(Cl)c(F)c2)o1 (centres unmarked) [Example 42, (1s,4s)-4-(5-(5-(4 - Chloro-3-fluorophenylamino)-1,3,4-oxadiazole-2-carboxamido)-4-methylpyridin-2-yloxy) cyclohexanecarboxylic acid]"
18,50,"COc1cc(O[C@H]2CC[C@@H](C(=O)O)CC2)ncc1NC(=O)c1nnc(Nc2ccc(F)c(F)c2)o1 [Example 43, (1s,4s)-4-(5-(5-(3,4-Difluorophenylamino)-1,3,4-oxadiazole-2-carboxamido)-4-methoxypyridin-2-yloxy)cyclohexanecarboxylic acid]"
19,54,COc1cc(O[C@H]2CC[C@@H](C(=O)O)CC2)ncc1NC(=O)c1nnc(Nc2ccc(Br)cc2Cl)o1 [Example 44]
20,6.4,"CS(=O)(=O)NC(=O)[C@H]1CC[C@@H](Oc2ccc(NC(=O)c3nnc(Nc4ccc(F)c(F)c4)o3)cn2)CC1 [Example 45, 5-(3,4-Difluorophenylamino)-N-(6-((1s,4s)-4-(methylsulfonylcarbamoyl)cyclohexyloxy)pyridin-3-yl)-1,3,4-oxadiazole-2-carboxamide]"
21,22,"O=C(Nc1cnc(O[C@H]2CC[C@@H](C(=O)O)CC2)c(Cl)c1)c1nnc(Nc2ccc(Cl)cc2Cl)o1 [Example 46, (1s,4s)-4-(3-Chloro-5-(5-(2,4-dichlorophenylamino)-1,3,4-oxadiazole-2-carboxamido)pyridin-2-yloxy)cyclohexanecarboxylic acid]"
22,22,"O=C(Nc1cnc(O[C@H]2CC[C@@H](C(=O)O)CC2)c(Cl)c1)c1nnc(Nc2ccc(F)c(F)c2)o1 [Example 47, (1s,4s)-4-(3-Chloro-5-(5-(3,4-difluorophenylamino)-1,3,4-oxadiazole-2-carboxamido)pyridin-2-yloxy)cyclohexanecarboxylic acid]"
23,14,"O=C(Nc1cnc(O[C@H]2CC[C@@H](C(=O)O)CC2)c(Cl)c1)c1nnc(Nc2ccc(F)c(Cl)c2)o1 [Example 48, (1s,4s)-4-(3-Chloro-5-(5-(3-chloro-4-fluorophenylamino)-1,3,4-oxadiazole-2-carboxamido)pyridin-2-yloxy)cyclohexanecarboxylic acid]"

# Reference: patent publication US20110092547A1 (priority 2007, published 2011)
